Experimental data reported in US20090203145A1, “METHODS FOR ANALYSIS OF VITAMINS” (priority 2008, published 2009).

Test system: specific bacteria
Experiment: Microbiological method for B6 (Official Method 961.15, Modified): signal response of similar molecules
Type: cell-based
Conditions: microbiological B6 assay; for Signal Response in Microbiological Method: Response, %: B6 (pyridoxine) given as 100; for response in microbiological method compared with B6: statement in words
Text: The often low concentrations of vitamins in foods can make measuring the level of vitamins in various foods difficult. For example, the low concentration of B vitamins in infant formula makes it difficult to be measured by traditional measurement techniques such as HPLC. Currently, microbiological methods for measuring B vitamins are widely used at laboratories. This method is based on the growth of specific bacteria in the presence of a specific B vitamin and can only be measured one analyte per assay. The analysis process may take more than 30 hours. Poor reproducibility is another disadvantage. It is not unusual for a bacterial response to vary with different compounds and show low specificity. Monitoring different chemical forms. Current microbiological method have less specificity, such as those described in Official Method 961.15 (Modified), Official Methods of Analysis of AOAC International, 17th ed., AOAC International, Gaithersburg Md. (2000). In the case of B6, for example, other similar molecules may have a similar response. […] However, these compounds can be distinguished by LC/MS/MS without any problem in real samples such as milk.

| SMILES | Signal Response in Microbiological Method: Response, % [%] | response in microbiological method compared with B6 |
| --- | --- | --- |
| Cc1ncc(CO)c(CN)c1O [Pyridoxamine, pyridoxamine] | 84 | response as strong as B6 |
| Cc1ncc(CO)c(C=O)c1O [Pyridoxal, pyridoxal] | 112 | response as strong as B6 |
| Cc1ncc(CO)c(CO)c1O [B6, pyridoxine, pyridoxine] | 100 |  |
| Cc1ncc(CO)c(C(=O)O)c1O [Pyridoxic acid, 4-pyridoxic acid] | 0 |  |
